In paper PMC12498190, “A Photocaged N‐Phosphonopiperidinone as a Selective Photo‐Cleavable DPP8/9 Inhibitor” (Chembiochem, 2025):

Assays:
[1] = tested on: HEK293 cells; test: Cell viability assay (MTT); type: cell-based, human; conditions: 24 h; for Viability of cells (in words): after 5 min green light irradiation
Protocol: Figure 2 Competitive ABPP with photo‐cleavable inhibitor 5 in HEK293 cells. A) Schematic overview of a competitive ABPP experiment. A proteome is pre‐incubated with a competitor, followed by a labeling reaction with an activity‐based probe (ABP). In the case of a photocaged inhibitor, the active compound can be released via irradiation. Target proteins of the competitor cannot be bound by the ABP, resulting in an absence of the respective protein band in‐gel analysis. Created in BioRender. Najdzion, M. (2025) https://BioRender.com/84zn8cb B) Gel‐based competitive ABPP experiment in HEK293 cell lysates with the broadband serine hydrolase ABP ≡FP or the DPP8/9‐directed ABP 2 and the photocaged inhibitor 5, at the indicated concentrations, after or without prior irradiation with green light for 5 min. The corresponding pre‐incubation time for 5 was 30 min. C) Corresponding in situ competitive ABPP experiment in HEK293 cell culture, again with 10 µM 2 for 1 h. Labeling was competed by pre‐incubation with 20 µM 5 for 1 h, followed by an activation of the photocaged inhibitor by irradiation for 5 min with a green LED lamp, if applicable. D) Green light treatment has no cytotoxic effect. HEK293 cells were irradiated with a green LED lamp in the presence of 0.5% DMSO for 5 min (‘light’), and cell viability was measured after 24 h. […] Data was normalized to the non‐irradiated control (‘dark’). E) Green light treatment leads to the release of the active DPP8/9 inhibitor. HEK293 cells were incubated with compound 1 or 5 for 24 h. For both compounds, cell viability was measured under ‘dark’ (not irradiated) and ‘light’ (irradiated for 5 min with a green LED lamp after the addition of the inhibitor) conditions. […] Data was normalized to the non‐irradiated DMSO control.
In order to validate target engagement in living cells and potential cytotoxic effects of green light treatment, we determined cell viability of HEK293 cells after 24 h inhibitor treatment with 5 with or without 5 min green light irradiation, as the application of DPP8/9 inhibitors at high concentrations and thus elimination of any residual DPP8/9 activity results in cytotoxicity.^[ [38], [39] ^– [40] ^] As a control, effects of green light treatment on cell viability were examined in the absence of any inhibitor after 24 h, again with or without 5 min irradiation (Figure 2D). […] Of note, no additional effect of the photocage on cell viability was observed. In summary, our cell viability studies confirm target engagement in live cells exclusively after photorelease, thereby again confirming the suitability of the photocaged DPP8/9 inhibitor 5 as a cell biological tool compound.
To investigate the cytotoxicity of compounds, 2 × 10^4 HEK293 cells were cultured in DMEM (+/+) on 96‐well flat‐bottom cell culture plates (Sarstedt, Germany) as described above. After 24 h, cells were treated with indicated concentrations of compounds (final DMSO concentration: 0.5%) and, if applicable, irradiated with a green LED lamp (λ = 520−530 nm; Eurolite, Germany) for 5 min. Control cells were treated with DMSO. Cell viability was measured 24 h after compound treatment. To this end, 25 µL Thiazolyl Blue Tetrazolium Bromide (MTT) solution (5 mg mL^−1 MTT (Sigma Aldrich, USA) in PBS (Gibco, USA)) was added to each well directly into the medium. After 3 h of incubation at 37 °C, the medium was removed and formazan crystals were dissolved by adding 150 µL DMSO (1 h, 37 °C, gentle shaking), followed by an absorbance measurement at 570 and 630 nm as a reference using a Tecan Spark 10 M multimode microplate reader (Tecan Group Ltd., Switzerland). Each experiment was performed with five replicates. Relative cell viability was expressed as a percentage relative to the DMSO‐treated control cells.

[2] = target: DPP9 (Homo sapiens, UniProt Q86TI2); test: In situ competitive ABPP in HEK293 cell culture, 100 kDa band; type: cell-based; design: endogenous in cells; host or cells: HEK293 (Cytion, Germany, 300192); conditions: pre-incubation 1 h with 20 µM or 10 µM (method), 10 µM 2 for 1 h, light 5 min
Chain of DPP9 (Q86TI2 whole entry): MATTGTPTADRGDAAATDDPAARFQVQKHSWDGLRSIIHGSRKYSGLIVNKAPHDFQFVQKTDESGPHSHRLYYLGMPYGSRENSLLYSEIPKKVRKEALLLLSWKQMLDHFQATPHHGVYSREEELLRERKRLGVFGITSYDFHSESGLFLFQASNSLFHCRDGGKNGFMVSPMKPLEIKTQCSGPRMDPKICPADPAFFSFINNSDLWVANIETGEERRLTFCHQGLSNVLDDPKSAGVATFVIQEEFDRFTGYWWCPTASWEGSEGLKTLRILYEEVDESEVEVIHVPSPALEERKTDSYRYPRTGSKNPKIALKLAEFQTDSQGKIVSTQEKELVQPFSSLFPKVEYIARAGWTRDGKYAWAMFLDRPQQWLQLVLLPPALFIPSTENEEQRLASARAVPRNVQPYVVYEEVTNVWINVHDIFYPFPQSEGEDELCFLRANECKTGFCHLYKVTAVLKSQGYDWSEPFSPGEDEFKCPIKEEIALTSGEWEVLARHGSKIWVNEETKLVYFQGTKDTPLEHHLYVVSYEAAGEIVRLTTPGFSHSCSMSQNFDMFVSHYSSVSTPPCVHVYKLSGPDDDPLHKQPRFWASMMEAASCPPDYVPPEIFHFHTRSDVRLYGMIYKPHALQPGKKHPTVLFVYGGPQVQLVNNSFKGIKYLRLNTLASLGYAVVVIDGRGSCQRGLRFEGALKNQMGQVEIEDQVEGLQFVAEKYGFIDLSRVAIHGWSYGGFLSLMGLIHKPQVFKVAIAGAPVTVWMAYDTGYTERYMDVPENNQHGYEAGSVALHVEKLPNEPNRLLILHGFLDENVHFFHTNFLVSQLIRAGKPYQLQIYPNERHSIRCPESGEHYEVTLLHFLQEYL
Protocol: Figure 2 Competitive ABPP with photo‐cleavable inhibitor 5 in HEK293 cells. A) Schematic overview of a competitive ABPP experiment. A proteome is pre‐incubated with a competitor, followed by a labeling reaction with an activity‐based probe (ABP). In the case of a photocaged inhibitor, the active compound can be released via irradiation. Target proteins of the competitor cannot be bound by the ABP, resulting in an absence of the respective protein band in‐gel analysis. Created in BioRender. Najdzion, M. (2025) https://BioRender.com/84zn8cb B) Gel‐based competitive ABPP experiment in HEK293 cell lysates with the broadband serine hydrolase ABP ≡FP or the DPP8/9‐directed ABP 2 and the photocaged inhibitor 5, at the indicated concentrations, after or without prior irradiation with green light for 5 min. The corresponding pre‐incubation time for 5 was 30 min. C) Corresponding in situ competitive ABPP experiment in HEK293 cell culture, again with 10 µM 2 for 1 h. […] HEK293 cells were irradiated with a green LED lamp in the presence of 0.5% DMSO for 5 min (‘light’), and cell viability was measured after 24 h. […] For both compounds, cell viability was measured under ‘dark’ (not irradiated) and ‘light’ (irradiated for 5 min with a green LED lamp after the addition of the inhibitor) conditions. […]

CCCCCc1ccc(SCCP(=O)(OCC)N2CCC[C@H](NC(=O)OCC3=C4C(C)=CC(C)=[N+]4[B-](C)(C)n4c(C)cc(C)c43)C2=O)cc1 (stereo partly shown) [Compound 5]
Viability of cells (in words) ([1]; 25 µM): significantly reduced
Viability of cells (in words) ([1]; 50 µM): significantly reduced
Cytotoxicity (in words) ([1]; dark, up to highest concentrations used): no cytotoxicity
Competition of DPP9 labeling in live cells (in words) [2]: completely inhibited
